From paper PMC10892497, “Discovery of Pyrano[2,3-c]pyrazole Derivatives as Novel Potential Human Coronavirus Inhibitors: Design, Synthesis, In Silico, In Vitro, and ADME Studies” (Pharmaceuticals, 2024) come the findings set out here.

Data set [1] in a line: MTT assay for cellular toxicity. To be noted: African green monkey. For orientation: Tetrazolium dyes change colour on reduction, which living cells bring about.
Data set [2] deals with HCoV-229E. Nature of the data set: Cytopathic inhibition assay (crystal violet). To be noted: for antiviral activity against HCoV-229E (in words): Vero-E6; for pIC50: cytopathic inhibition assay.
Data set [3] has as its system HCoV-229E. Nature of the data set: Mode of action using plaque assay (virucidal, adsorption, replication). To be noted: replication mechanism. In kind it is cell-based, human coronavirus 229E.
The target in data set [4] is T1, SARS-CoV2 protease enzyme (3CL protease, M^pro) (Severe acute respiratory syndrome coronavirus 2, UniProt P0DTD1).
T1 construct: provided with 30 µL of diluted 3CL Protease enzyme solution (M^pro); purchased BPS Bioscience, San Diego, CA, USA #79955-1
Kind of data set: Protease (SARS-CoV2) inhibition test, 3CL Protease Test Kit. Format: biochemical.

Where [5] appears, read: Human coronavirus 229E, Vero C1008, HCoV-229E in Vero-E6 cells.
The mark [6] stands for this setting: Vero-E6 cells infected with HCoV-229E.

Each structure is given as a SMILES string. pIC50: −log10 of the molar value. Read-outs that look alike come from different tables or passages of the source.

A word on the CC50: it is the concentration at which the toxic effect on the cells reaches its halfway point. Usually pIC50 stands for −log10 of the IC50, conventionally taken in molar units. For `Cc1n[nH]c2c1C(c1cccs1)c1c(N)ncnc1O2` (stereo not drawn) [Compound 2], the 50% cytotoxic concentration (CC50) at 48 h in data set [1] came to 749 µM. Besides, in the data set on HCoV-229E [2], the selectivity ratio amounted to 2.4 and the “antiviral activity against HCoV-229E (in words)” value (“antiviral activity” below) was “minimal antiviral activity”. In addition, the pIC50 in the data set with HCoV-229E [2] (setting [5]) was 3.51.

On to `Cc1n[nH]c2c1C(c1cccs1)C(C#N)=C(/N=C/c1nncn1C)O2` (stereo not drawn) [Compound 4], for which, in data set [1], the cytotoxic concentration (CC50) at 48 h worked out at 67.5 µM. Further, in the data set with HCoV-229E [2], the selectivity ratio amounted to 0.9 and the “antiviral activity” value is “did not”. For the same molecule, the negative logarithm of the IC50 (pIC50) with HCoV-229E [2] (HCoV-229E in Vero-E6 cells) is 4.15. The same molecule had a negative-log IC50 (pIC50) with HCoV-229E [2] (setting [5]) of 4.11.

`Cc1n[nH]c2c1C(c1cccs1)C(C#N)=C(N1C(=O)CSC1c1nncn1C)O2` (stereo not drawn) [Compound 5] had a cytotoxic concentration (CC50) at 48 h in data set [1] of 95.4 µM. In addition, in the data set with HCoV-229E [2], the selectivity ratio worked out at 1.86 and the “antiviral activity” value is given as “minimal antiviral activity”. Moreover, in the data set on HCoV-229E [2] (setting [5]), the pIC50 was 4.29.

In the case of `Cc1n[nH]c2c1C(c1cccs1)C(C#N)=C(N1C(=O)C(Cl)C1c1nncn1C)O2` (stereo not drawn) [Compound 6], the “reduction percentage, replication phase” value in the data set on HCoV-229E [3] is reported as 53.6%. For the same molecule, the negative-log IC50 (pIC50) is 3.98 in data set [4], 4.05 with HCoV-229E [2] (HCoV-229E in Vero-E6 cells) and 4.18 in the data set on HCoV-229E [2] (setting [5]). For the same molecule, in data set [1], the cytotoxic concentration (CC50) at 48 h came out at 585 µM. In the data set on HCoV-229E [2], the “antiviral activity” value is given as “moderate efficacies”. Moreover, the selectivity ratio in the data set with HCoV-229E [2] (setting [6]) is 7.6.

`COP(=O)(OC)C1(c2csnn2)NC2=C(C1=O)C(c1cccs1)c1c(C)n[nH]c1O2` (stereo not drawn) [Compound 7, dimethyl(3-methyl-5-oxo-6-(1,2,3-thiadiazol-4-yl)-4-(thiophen-2-yl)-4,5,6,7-tetrahydro-1H-pyrrolo[3′,2′:5,6]pyrano[2,3-c]pyrazol-6-yl)phosphonate]: the “reduction percentage, replication phase” value in the data set on HCoV-229E [3] was 60.7%. For the same molecule, the values for the negative-log IC50 (pIC50) (in data set [4]; with HCoV-229E [2] (HCoV-229E in Vero-E6 cells); in the data set on HCoV-229E [2] (setting [5])) were 3.11, 4.59 and 4.45, respectively. In addition, the CC50 at 48 h in data set [1] was found to be 190 µM. For the same molecule, the selectivity ratio in the data set on HCoV-229E [2] came to 4.3. For the same molecule, in the data set on HCoV-229E [2], the “antiviral activity” value is given as “moderate efficacies”.

As to `Cc1n[nH]c2c1C(c1cccs1)C1=C(NC(c3csnn3)c3c(C(F)(F)F)nn(C)c3OC1=N)O2` (stereo not drawn) [Compound 8], the CC50 at 48 h in data set [1] was determined as 45.3 µM. In the data set with HCoV-229E [2], the selectivity ratio was 0.6 and the “antiviral activity” value was “did not”. Besides, in the data set with HCoV-229E [2] (HCoV-229E in Vero-E6 cells), the pIC50 is 4.16. In addition, the negative logarithm of the IC50 (pIC50) in the data set with HCoV-229E [2] (setting [5]) is 4.06.

The molecule `CCO/C=N/C1=C(C#N)C(c2cccs2)c2c(C)n[nH]c2O1` (stereo not drawn) [Compound 9] had a half-maximal cytotoxic concentration (CC50) at 48 h in data set [1] of 365 µM. In the data set on HCoV-229E [2], the selectivity ratio was 2.3 and the “antiviral activity” value was “minimal antiviral activity”. The molecule also gave a pIC50 with HCoV-229E [2] (HCoV-229E in Vero-E6 cells) of 3.87. The pIC50 in the data set on HCoV-229E [2] (setting [5]) is 3.87.

As for `Cc1n[nH]c2c1C(c1cccs1)c1c(ncn(N)c1=N)O2` (stereo not drawn) [Compound 10], the midpoint of cytotoxicity in data set [1], the CC50 at 48 h, lay at 25.4 µM. Besides, in the data set on HCoV-229E [2], the selectivity ratio came out at 1.3 and the “antiviral activity” value is on record as “minimal antiviral activity”.

Regarding `Cc1n[nH]c2c1C(c1cccs1)c1c(ncn3[nH]c(=S)nc13)O2` (stereo not drawn) [Compound 11], the CC50 at 48 h in data set [1] amounted to 19.7 µM. In the data set on HCoV-229E [2], the selectivity ratio came to 1.7 and the “antiviral activity” value is given as “minimal antiviral activity”. Further, the negative-log IC50 (pIC50) in the data set on HCoV-229E [2] (HCoV-229E in Vero-E6 cells) was 4.96. In the data set on HCoV-229E [2] (setting [5]), this molecule had a pIC50 of 4.80.

Molecule `Cc1n[nH]c2c1C(c1cccs1)c1c(ncn3ncnc13)O2` (stereo not drawn) [Compound 12] came in with a 50% cytotoxic concentration (CC50) at 48 h in data set [1] of 66.6 µM. Further, in the data set with HCoV-229E [2], the selectivity ratio stood at 3.5 and the “antiviral activity” value is given as “minimal antiviral activity”. In the data set with HCoV-229E [2] (setting [5]), this molecule had a negative logarithm of the IC50 (pIC50) of 4.73.

As to `Cc1n[nH]c2c1C(c1cccs1)c1c(ncn3nc(-c4nc[nH]n4)nc13)O2` (stereo not drawn) [Compound 13], half-maximal cytotoxicity in data set [1] (CC50 at 48 h) was put at 49.8 µM. In the data set with HCoV-229E [2], the selectivity ratio was determined as 0.46 and the “antiviral activity” value is listed as “did not”. In the data set with HCoV-229E [2] (HCoV-229E in Vero-E6 cells), this molecule showed a pIC50 of 4.05. Besides, the negative logarithm of the IC50 (pIC50) in the data set on HCoV-229E [2] (setting [5]) was 4.05.

`Cc1n[nH]c2c1C(c1cccs1)C(C#N)=C(/N=C/[C@H](O)[C@@H](O)[C@H](O)CO)O2` (stereo partly drawn) [Compound 14]: the “reduction percentage, replication phase” value in the data set with HCoV-229E [3] was 55%. Further, the pIC50 in data set [4] was 3.74; in the data set with HCoV-229E [2] (setting [5]), 4.10. In addition, in data set [1], the CC50 at 48 h was 507 µM. Moreover, the “antiviral activity” value in the data set with HCoV-229E [2] is listed as “moderate efficacies”. For the same molecule, the selectivity ratio in the data set with HCoV-229E [2] (setting [6]) was found to be 6.5.

What is called melting point is the temperature, or range, at which the solid turns liquid. Consider `Cc1n[nH]c2c1C(c1cccs1)C(C#N)=C(/N=C/[C@@H](O)[C@H](O)[C@H](O)CO)O2` (stereo partly drawn) [Compound 15], for which the melting point was over 300 °C. For the same molecule, in data set [1], the midpoint of cytotoxicity, the CC50 at 48 h, lay at 146 µM. For the same molecule, in the data set with HCoV-229E [2], the selectivity ratio was determined as 1.18 and the “antiviral activity” value is given as “minimal antiviral activity”. The same molecule gave a pIC50 with HCoV-229E [2] (HCoV-229E in Vero-E6 cells) of 3.91. The molecule also gave a pIC50 with HCoV-229E [2] (setting [5]) of 3.91.

The molecule `Cc1n[nH]c2c1C(c1cccs1)C(C#N)=C(/N=C/[C@@H](O)[C@@H](O)[C@H](O)[C@H](O)CO)O2` (stereo partly drawn) [Compound 17] showed a melting point of over 300 °C. In addition, the cytotoxic concentration (CC50) at 48 h in data set [1] is 183 µM. Further, in the data set with HCoV-229E [2], the selectivity ratio was determined as 1.7 and the “antiviral activity” value is recorded as “minimal antiviral activity”. Further, the pIC50 in the data set on HCoV-229E [2] (setting [5]) was 4.02.

`Cc1n[nH]c2c1C(c1cccs1)C(C#N)=C(/N=C/[C@H](O)[C@@H](O)[C@@H](O)[C@H](O)CO)O2` (stereo partly drawn) [Compound 18] gave a melting point of over 300 °C. Further, the “reduction percentage, replication phase” value in the data set on HCoV-229E [3] was 82.2%. Moreover, the pIC50 in data set [4] is 4.18. The midpoint of cytotoxicity in data set [1], the CC50 at 48 h, lay at 567 µM. The negative logarithm of the IC50 (pIC50) in the data set with HCoV-229E [2] (setting [5]) is 4.35. Besides, the selectivity ratio with HCoV-229E [2] (setting [6]) came out at 12.6.

The molecule `CCC[C@@]1(CCc2ccccc2)CC(O)=C([C@H](CC)c2cccc(NS(=O)(=O)c3ccc(C(F)(F)F)cn3)c2)C(=O)O1` [tipranavir, reference compound] had a pIC50 in data set [4] of 4.66.
